Key:
[1] = test system: PRC2-mediated histone H3 methylation; assay: Tri-Methyl Histone H3 (Lys 27) Sandwich ELISA in Pfeiffer cells: inhibition of PRC2-mediated histone H3 methylation; format: cell-based, human; details: Inhibition of EZH2-mediated histone H3 trimethylation, Pfeiffer cells (EZH2 A677G), 96 hours incubation
Source text: The Pfeiffer cell line was established from a […] from a patient having metastatic diffuse large B-cell lymphoma (DLBCL). This cell line expresses a mutant form of the EZH2 enzyme (A677G) that results in enhanced EZH2 activity leading to increased methylation of histone H3 Lys27. Increased trimethylation of histone H3 Lys27 is believed to be implicated in tumorgenesis and poor clinical prognosis in lymphomas (McCabe et al., (2012) Nature 492:108-112).
Inhibition of PRC2-mediated histone H3 methylation by compounds of Formula (I) was measured by ELISA using a Tri-Methyl Histone H3 (Lys 27) Sandwich ELISA Kit (Cell Signaling Tech #7866C) in accordance with the manufacturer's instructions. Briefly, Pfeiffer cells were cultured in RPMI medium supplemented with 10% fetal bovine serum and 1% penicillin and 1% streptomycin in 96 well culture plates at 37°C to a density of 8000 cells/90µl/well and the cells were harvested. A series of 3-fold serial dilutions of each test compound of Formula (I) were prepared in RPMI medium and added to the cells at final concentrations ranging from 1µM to 0.15 nM. The plates were incubated at 37°C for 96 hours.
After incubation, the cells were pelleted by centrifugation in a pre-cooled 4°C rotor at 1, 100 rpm for 10 min and the supernatant was removed by aspiration. The cell pellet was resuspended in 55µl of Lysis Buffer (0.4M HCl) and incubated on ice with periodic shaking for 30 minutes. The lysed cells were subjected to centrifugation at 4, 200 rpm for 10 min at 4°C and the supernatant containing acid-soluble proteins was collected and the remainder discarded. The acid-soluble proteins were brought to a neutral pH by the addition of 20 µl of Neutralization Buffer (1 M Sodium phosphate, dibasic (pH 12.5), 2.5 mM DTT and 1 mM PMSF) and the neutralized lysates were analyzed by ELISA.
A 65 µl aliquot of each cell lysate was added to a well of a microwell strip, the microwells were sealed using tape and incubated either at 37°C for two hours or at 4°C overnight. After incubation, the tape was removed at the microwells were washed four times using 200 µl of 1X Wash Buffer. To each washed microwell, a 100 µl aliquot of an antitrimethyl histone H3 Lys27 Detection Antibody solution was added and the microwells were incubated at 37°C for one hour. The Detection Antibody solution was removed by aspiration and the wells were washed four times each using 200 µl of 1X Wash Buffer.
A 100 µl aliquot of an HRP-linked secondary antibody was added to each well, the wells were sealed with tape and incubated at 37°C for 30 min. The HRP-linked secondary antibody solution was removed by aspiration and the wells were washed four times using 200 µl of 1X Wash Buffer. A 100 µl aliquot of a TMB substrate was added to each well, the wells were sealed with tape and incubated at 37°C for 10 min or 25°C for 30 min. The reaction was stopped by the addition of 100 µl aliquot of a STOP solution and the plate was shaken briefly. The degree of histone H3 trimethylation was determined using a spectrophotometric readout by measuring the absorbance at 450 nm and then calculating the amount of trimethylated histone H3. A = ≤100 nM; B = >100 nM - ≤500 nM; C = >500 nM and N.D. = not determined.

[2] = molecular target: purified human, His-tagged PRC2 complex (Homo sapiens, UniProt O75530+Q15910); assay: Hot Spot HMT assay: inhibition of PRC2 enzymatic activity (transfer of tritiated methyl from SAM to core histone, filter binding); format: biochemical; details: Inhibition of PRC2-mediated enzymatic activity; 10 nM PRC2 complex, 0.05 mg/ml core histone H3, 1 uM 3H-SAM, 1 hr at 30°C
How it was run: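 Serial compound dilutions starting at 1.0 µM were pre-incubated 20 min at 30°C with 10 nM complex (His-EZH2, Flag-EED, His-SUZ12, His-AEBP2, His-RbAp48) and 0.05 mg/ml core H3. Reaction ran 1 hr at 30°C after adding 1 uM [3H]-SAM; scintillation counting followed filtration.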

Karpas 422 cells = assay: Karpas 422 cell viability, CTG (Cell Titre Glo) assay; format: cell-based, human; details: Inhibition of proliferation of Karpas 422 cells (EZH2 Y641N), viability measured Day 4, Day 7 or Day 11, time point of the tabulated values not stated
How it was run: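 CellTiter-Glo viability IC50s taken at Day 4, Day 7 and Day 11 of continuous compound exposure (3-fold series, 10µM top, 1.5nM lowest) in RPMI/20% FBS at 37 °C. Y641N-mutant EZH2 lymphoma line seeded at 1000 cells per well; medium and compound replaced on Day 7 for Day 11 read.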

Sequence of purified human, His-tagged PRC2 complex (Q15910 whole entry): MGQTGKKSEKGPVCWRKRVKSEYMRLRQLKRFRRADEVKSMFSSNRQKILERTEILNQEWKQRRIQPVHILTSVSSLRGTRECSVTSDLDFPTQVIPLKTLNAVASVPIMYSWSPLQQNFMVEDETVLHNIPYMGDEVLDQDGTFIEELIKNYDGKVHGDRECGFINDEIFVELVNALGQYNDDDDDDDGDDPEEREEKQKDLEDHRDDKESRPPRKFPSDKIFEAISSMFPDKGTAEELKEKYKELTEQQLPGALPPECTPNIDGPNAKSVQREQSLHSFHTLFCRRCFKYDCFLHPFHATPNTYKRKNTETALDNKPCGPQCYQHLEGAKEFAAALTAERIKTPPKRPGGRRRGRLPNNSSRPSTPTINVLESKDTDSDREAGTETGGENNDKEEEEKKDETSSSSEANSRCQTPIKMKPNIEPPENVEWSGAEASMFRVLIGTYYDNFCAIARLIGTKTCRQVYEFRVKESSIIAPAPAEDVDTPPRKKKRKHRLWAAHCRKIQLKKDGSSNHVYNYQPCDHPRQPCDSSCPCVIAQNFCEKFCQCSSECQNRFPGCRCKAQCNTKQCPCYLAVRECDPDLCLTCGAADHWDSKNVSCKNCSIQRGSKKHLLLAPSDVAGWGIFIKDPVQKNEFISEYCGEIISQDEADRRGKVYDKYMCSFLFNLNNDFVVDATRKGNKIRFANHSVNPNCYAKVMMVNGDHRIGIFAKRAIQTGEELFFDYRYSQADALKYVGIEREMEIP
Sequence of purified human, His-tagged PRC2 complex (O75530 whole entry): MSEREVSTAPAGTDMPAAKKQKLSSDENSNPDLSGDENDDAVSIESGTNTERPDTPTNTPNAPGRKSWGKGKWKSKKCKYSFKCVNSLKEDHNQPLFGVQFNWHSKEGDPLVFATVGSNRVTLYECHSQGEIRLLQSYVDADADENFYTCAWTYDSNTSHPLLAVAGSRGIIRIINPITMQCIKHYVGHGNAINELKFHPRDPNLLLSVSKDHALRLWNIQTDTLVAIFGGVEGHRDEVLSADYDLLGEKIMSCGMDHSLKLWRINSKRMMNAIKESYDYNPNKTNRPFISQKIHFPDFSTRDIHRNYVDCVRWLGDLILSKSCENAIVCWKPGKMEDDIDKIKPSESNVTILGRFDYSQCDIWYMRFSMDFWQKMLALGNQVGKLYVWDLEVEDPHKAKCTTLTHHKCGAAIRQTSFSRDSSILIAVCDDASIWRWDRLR
Sequence of purified human, His-tagged PRC2 complex (Q15022 whole entry partner): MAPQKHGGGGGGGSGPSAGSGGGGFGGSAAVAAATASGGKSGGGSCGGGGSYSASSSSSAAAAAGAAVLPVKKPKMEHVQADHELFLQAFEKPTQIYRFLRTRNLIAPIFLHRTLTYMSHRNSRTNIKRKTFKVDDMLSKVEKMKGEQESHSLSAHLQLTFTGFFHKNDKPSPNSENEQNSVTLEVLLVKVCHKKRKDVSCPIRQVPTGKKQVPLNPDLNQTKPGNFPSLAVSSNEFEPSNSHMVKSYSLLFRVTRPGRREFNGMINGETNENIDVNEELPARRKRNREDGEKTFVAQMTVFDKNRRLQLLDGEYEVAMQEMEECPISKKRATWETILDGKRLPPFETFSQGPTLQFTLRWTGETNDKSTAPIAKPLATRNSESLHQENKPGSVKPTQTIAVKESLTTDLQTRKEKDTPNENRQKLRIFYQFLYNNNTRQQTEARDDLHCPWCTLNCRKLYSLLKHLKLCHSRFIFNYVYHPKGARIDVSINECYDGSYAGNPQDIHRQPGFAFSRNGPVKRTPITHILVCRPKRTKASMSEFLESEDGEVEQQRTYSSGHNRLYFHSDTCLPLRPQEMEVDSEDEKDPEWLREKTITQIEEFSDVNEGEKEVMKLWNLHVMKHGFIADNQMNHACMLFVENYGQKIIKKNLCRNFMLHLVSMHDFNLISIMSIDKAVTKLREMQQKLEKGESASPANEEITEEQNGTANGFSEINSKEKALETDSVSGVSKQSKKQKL
Sequence of purified human, His-tagged PRC2 complex (Q6ZN18 whole entry partner): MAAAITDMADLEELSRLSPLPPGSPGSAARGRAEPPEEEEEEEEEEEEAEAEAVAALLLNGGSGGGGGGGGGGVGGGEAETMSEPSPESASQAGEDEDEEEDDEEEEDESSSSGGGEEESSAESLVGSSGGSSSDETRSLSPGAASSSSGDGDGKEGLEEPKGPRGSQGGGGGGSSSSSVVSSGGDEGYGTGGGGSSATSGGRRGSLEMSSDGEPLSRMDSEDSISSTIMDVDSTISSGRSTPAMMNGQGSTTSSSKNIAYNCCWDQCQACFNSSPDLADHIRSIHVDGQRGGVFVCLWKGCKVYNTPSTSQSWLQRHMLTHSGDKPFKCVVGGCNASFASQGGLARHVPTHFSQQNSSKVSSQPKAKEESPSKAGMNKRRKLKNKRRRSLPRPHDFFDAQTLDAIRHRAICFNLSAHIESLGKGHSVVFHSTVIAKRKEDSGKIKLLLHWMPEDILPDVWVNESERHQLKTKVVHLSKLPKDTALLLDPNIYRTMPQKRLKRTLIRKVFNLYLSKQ
Sequence of purified human, His-tagged PRC2 complex (Q09028 whole entry partner): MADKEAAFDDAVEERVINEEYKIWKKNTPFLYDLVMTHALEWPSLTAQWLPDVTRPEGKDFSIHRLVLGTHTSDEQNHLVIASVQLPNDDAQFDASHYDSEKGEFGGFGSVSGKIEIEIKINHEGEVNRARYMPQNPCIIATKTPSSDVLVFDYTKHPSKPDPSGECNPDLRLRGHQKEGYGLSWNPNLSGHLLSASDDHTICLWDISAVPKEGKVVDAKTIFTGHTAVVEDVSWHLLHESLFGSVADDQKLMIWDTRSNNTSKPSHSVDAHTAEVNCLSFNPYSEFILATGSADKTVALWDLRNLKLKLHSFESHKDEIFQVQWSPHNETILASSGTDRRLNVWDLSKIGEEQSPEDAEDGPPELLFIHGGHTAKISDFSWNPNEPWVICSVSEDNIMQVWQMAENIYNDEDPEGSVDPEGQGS

Row | Molecule | IC50 [1] [nM] | IC50 [2] [nM] | IC50 (Karpas 422 cells) [nM] | IC50 ([1]; Homo sapiens) [nM] | IC50 (Karpas 422 cells; Homo sapiens) [nM]
1 | 5-(((5-fluoro-2,3-dihydrobenzofuran-4-yl)methyl)amino)-8-(2-methyl-6-morpholinopyridin-3-yl)imidazo[1,2-c]pyrimidine-2-carbonitrile [Example 56] | 100 to 500 | < 100 | ≤ 250 |  | 
2 | Cc1cc(C2CCCN2)ccc1-c1cnc(NCc2c(F)ccc3c2CCO3)n2cc(C#N)nc12 (single isomer, unassigned) [Example 213, 5-(((5-fluoro-2,3-dihydrobenzofuran-4-yl)methyl)amino)-8-(2-methyl-4-(pyrrolidin-2-yl)phenyl)imidazo[1,2-c]pyrimidine-2-carbonitrile] |  |  |  | 100 to 500 | ≤ 250
3 | Cc1cc(-c2cnc(NCc3c(F)ccc4c3CCO4)n3cc(C(=O)O)nc23)n(C)n1 [Example 1, 8-(1,3-dimethyl-1H-pyrazol-5-yl)-5-(((5-fluoro-2,3-dihydrobenzofuran-4-yl)methyl)amino)imidazo[1,2-c]pyrimidine-2-carboxylic acid] |  |  |  | > 500 | > 500
4 | Cc1ncccc1-c1cnc(NCc2c(F)ccc3c2CCO3)n2cc(C(=O)O)nc12 [Example 2, 5-(((5-fluoro-2,3-dihydrobenzofuran-4-yl)methyl)amino)-8-(2-methylpyridin-3-yl)imidazo[1,2-c]pyrimidine-2-carboxylic acid] |  |  |  | > 500 | > 500
5 | CN(C)Cc1ccc(-c2cnc(NCc3c(F)ccc4c3CCO4)n3cc(C#N)nc23)cc1F [Example 63, 8-(4-((dimethylamino)methyl)-3-fluorophenyl)-5-(((5-fluoro-2,3-dihydrobenzofuran-4-yl)methyl)amino)imidazo[1,2-c]pyrimidine-2-carbonitrile] |  | < 100 |  | ≤ 100 | 
6 | CC(c1ccc(-c2cnc(NCc3c(F)ccc4c3CCO4)n3cc(C#N)nc23)cc1)N1CCCC1 (stereo not shown) [Example 90, 5-(((5-fluoro-2,3-dihydrobenzofuran-4-yl)methyl)amino)-8-(4-(1-(pyrrolidin-1-yl)ethyl)phenyl)imidazo[1,2-c]pyrimidine-2-carbonitrile] |  | < 100 |  | ≤ 100 | 
7 | COc1cc(-c2cnc(NCc3c(F)ccc4c3CCO4)n3cc(C#N)nc23)c(F)cn1 [Example 123, 5-(((5-fluoro-2,3-dihydrobenzofuran-4-yl)methyl)amino)-8-(5-fluoro-2-methoxypyridin-4-yl)imidazo[1,2-c]pyrimidine-2-carbonitrile] |  | < 100 |  | ≤ 100 | 
8 | Cn1nncc1-c1cnc(NCc2c(F)ccc3c2CCO3)n2cc(C#N)nc12 [Example 143, 5-(((5-fluoro-2,3-dihydrobenzofuran-4-yl)methyl)amino)-8-(1-methyl-1H-1,2,3-triazol-5-yl)imidazo[1,2-c]pyrimidine-2-carbonitrile] |  | < 100 |  | ≤ 100 | 
9 | N#Cc1cn2c(NCc3c(F)ccc4c3CCO4)ncc(-c3cccnc3CO)c2n1 [Example 148, 5-(((5-fluoro-2,3-dihydrobenzofuran-4-yl)methyl)amino)-8-(2-(hydroxymethyl)pyridin-3-yl)imidazo[1,2-c]pyrimidine-2-carbonitrile] |  | < 100 |  | 100 to 500 | 
10 | N#Cc1cn2c(NCc3c(F)ccc4c3CCO4)ncc(-c3ccc(CN4CC(O)C4)cc3)c2n1 [Example 150, 5-(((5-fluoro-2,3-dihydrobenzofuran-4-yl)methyl)amino)-8-(4-((3-hydroxyazetidin-1-yl)methyl)phenyl)imidazo[1,2-c]pyrimidine-2-carbonitrile] |  | < 100 |  | ≤ 100 | 
11 | Cc1ccc(C#N)cc1-c1cnc(NCc2c(F)ccc3c2CCO3)n2cc(C#N)nc12 [Example 177, 8-(5-cyano-2-methylphenyl)-5-(((5-fluoro-2,3-dihydrobenzofuran-4-yl)methyl)amino)imidazo[1,2-c]pyrimidine-2-carbonitrile] |  | 100 to 500 |  | 100 to 500 | 

The next lines start with results.

Row | IC50 [1] [nM] | IC50 [2] [nM] | IC50 (Karpas 422 cells) [nM] | IC50 ([1]; Homo sapiens) [nM] | Molecule | IC50 (Karpas 422 cells; Homo sapiens) [nM]
12 | ≤ 100 | < 100 | ≤ 250 |  | 5-(2-cyano-5-(((5-fluoro-2,3-dihydrobenzofuran-4-yl)methyl)amino)imidazo[1,2-c]pyrimidin-8-yl)-1-methyl-1H-pyrazole-3-carboxylic acid [Example 157] | 
13 | 100 to 500 | 100 to 500 | ≤ 250 |  | 5-(((5-fluoro-2,3-dihydrobenzofuran-4-yl)methyl)amino)-8-(2-methylpyridin-4-yl)imidazo[1,2-c]pyrimidine-2-carbonitrile [Example 178] | 
14 |  | < 100 |  | 100 to 500 | N#Cc1cn2c(NCc3c(F)ccc4c3CCO4)ncc(-c3ccccc3)c2n1 [Example 46, 5-(((5-fluoro-2,3-dihydrobenzofuran-4-yl)methyl)amino)-8-phenylimidazo[1,2-c]pyrimidine-2-carbonitrile] | 
15 |  | < 100 |  | ≤ 100 | N#Cc1cn2c(NCc3c(F)ccc4c3CCO4)ncc(-c3ccc(CN4CC(F)(F)C4)cc3)c2n1 [Example 51, 8-(4-((3,3-difluoroazetidin-1-yl)methyl)phenyl)-5-(((5-fluoro-2,3-dihydrobenzofuran-4-yl)methyl)amino)imidazo[1,2-c]pyrimidine-2-carbonitrile] | 
16 |  | < 100 |  | ≤ 100 | N#Cc1cn2c(NCc3c(F)ccc4c3CCO4)ncc(-c3ccc(CN4CC5CC5C4)cc3)c2n1 (stereo not shown) [Example 52, 8-(4-((3-azabicyclo[3.1.0]hexan-3-yl)methyl)phenyl)-5-(((5-fluoro-2,3-dihydrobenzofuran-4-yl)methyl)amino)imidazo[1,2-c]pyrimidine-2-carbonitrile] | 
17 |  | < 100 |  | 100 to 500 | N#Cc1cn2c(NCc3c(F)ccc4c3CCO4)ncc(-c3cnn4c3CCC4)c2n1 [Example 80, 8-(5,8-dihydro-4H-pyrrolo[1,2-b]pyrazol-3-yl)-5-(((5-fluoro-2,3-dihydrobenzofuran-4-yl)methyl)amino)imidazo[1,2-c]pyrimidine-2-carbonitrile] | 
18 |  | < 100 |  | ≤ 100 | Cn1nc(C(F)(F)F)cc1-c1cnc(NCc2c(F)ccc3c2CCO3)n2cc(C#N)nc12 [Example 111, 5-(((5-fluoro-2,3-dihydrobenzofuran-4-yl)methyl)amino)-8-(1-methyl-3-(trifluoromethyl)-1H-pyrazol-5-yl)imidazo[1,2-c]pyrimidine-2-carbonitrile] | 
19 |  |  |  | ≤ 100 | Cn1nc(C(=O)N2CCOCC2)cc1-c1cnc(NCc2c(F)ccc3c2CCO3)n2cc(C#N)nc12 [Example 209, 5-(((5-fluoro-2,3-dihydrobenzofuran-4-yl)methyl)amino)-8-(1-methyl-3-(morpholine-4-carbonyl)-1H-pyrazol-5-yl)imidazo[1,2-c]pyrimidine-2-carbonitrile] | ≤ 250
20 |  | 100 to 500 |  | 100 to 500 | Cn1cc(-c2cnc(NCc3c(F)ccc4c3CCO4)n3cc(C#N)nc23)c(C#N)n1 [Example 224, 8-(3-cyano-1-methyl-1H-pyrazol-4-yl)-5-(((5-fluoro-2,3-dihydrobenzofuran-4-yl)methyl)amino)imidazo[1,2-c]pyrimidine-2-carbonitrile] | 

— EP4043466B1, “PRC2 INHIBITORS” (Mirati Therapeutics, Inc., priority 2018, dated 2019)
